# Bridge positions count the residues as written; N and C are the ends. Peptide text beside a SMILES is read from it.
# How the values were obtained:
# HIV (HTLV-IIIB) = assay: Inhibitory activity against HIV infection and proliferation in MT-4 cells (indirect fluorescence antibody method); type: cell-based, human immunodeficiency virus (HIV); conditions: three days, positive control 26.0%
# Method: (Method) Cultured supernatant of MOLT-4/HTLV-IIIB cells, a HTLV-IIIB persistent infected strain of HIV, was used as a viral solution. The supernatant was kept at -80° C. Human T cell line MT-4 was used for the test. MT-4 was subcultured in RPMI 1640 medium containing 10% fetal calf serum (FCS). Sample, LF derived peptide, was dissolved in RPMI 1640 medium and one ml of the diluted solution at various concentrations was added to the cells. The inoculated MT-4 test sample was incubated for 60 minutes and infected with HIV at a concentration of moi […]=0.01 and one ml of the cell solution adjusted at a cell density of 3×10^5 cells/ml was added. The cells were cultured for three days : and HIV infected cells were determined with an indirect fluorescence antibody method.
# HIV infected cells were determined by the indirect fluorescence antibody method using HIV infected patient serum as a primary antibody. […] HIV infected MT-4 cells cultured without addition of the sample was used as a positive control and cells without addition of viral solution was cultured to make a negative control group.
# [1] = system: influenza virus A/PR/8/34; conditions: 100 μl of one mg/ml solution in allantoic cavity three hours before virus; average of five eggs
# [2] = system: Human CMV (Tanaka strain); assay: Inhibitory activity against human CMV infection and proliferation in HELF cells (fluorescence staining); type: cell-based, Human cytomegalo virus; conditions: 24 hrs., concentration not given
# Method: (Method) LF derived peptide was dissolved in 2% serum added MEM medium to give five mg/ml solution, filtered and sterilized to make a stock solution. The stock solution was diluted with 2% serum added MEM medium on use. Samples containing human embryo lung fibroblast cells (HELF cells) were suspended in 2% serum added MEM medium and incubated for 10 minutes. The cells were collected by centrifugation, washed twice with 2% serum added MEM medium and suspended in 2% serum added MEM medium. Human cytomegalo virus [Human CMV (Tanaka strain)] was added, incubated for 24 hrs., fluorescence stained with human CMV positive serum and the adsorption rate of human CMV to the cells was determined.
# The results are judged from the numbers of fluorescent stained cells per one cover slip.
# [3] = system: mouse cytomegalo virus (mouse CMV); assay: In vivo inhibitory activity against mouse CMV infection (survival of mice); conditions: after 10 days
# Method: (Method) Male Balbc/AJcl mice, 4-week-old (10 in one group) were used. The sample was dissolved in phosphate buffer saline solution (PBS) and intraperitoneally administered to mice.
Compound,ratio of stained (HIV infected) cells (HIV (HTLV-IIIB); sample 63 μg/ml) [%],ratio of stained (HIV infected) cells (HIV (HTLV-IIIB); sample 125 μg/ml) [%],ratio of stained (HIV infected) cells (HIV (HTLV-IIIB); sample 250 μg/ml) [%],ratio of stained (HIV infected) cells (HIV (HTLV-IIIB); sample 500 μg/ml) [%],"ratio of stained (HIV infected) cells (HIV (HTLV-IIIB); sample 1,000 μg/ml) [%]",Inhibitory rate of infection and proliferation of influenza virus [1] [%],Inhibitory rate of human CMV infection [2] [%],Survival rate ([3]; 0.02 g/kg of body weight i.p. 24 hrs. before mouse CMV) [%],Survival rate ([3]; 0.05 g/kg of body weight i.p. 24 hrs. before mouse CMV) [%],Survival rate ([3]; 0.10 g/kg of body weight i.p. 24 hrs. before mouse CMV) [%],Survival rate ([3]; 0.50 g/kg of body weight i.p. 24 hrs. before mouse CMV) [%]
"CC[C@H](C)[C@@H]1NC(=O)[C@H](CO)NC(=O)[C@@H]2CCCN2C(=O)[C@H](C)NC(=O)CNC(=O)[C@H](CC(C)C)NC(=O)[C@H](CCCCN)NC(=O)[C@H](CCCCN)NC(=O)[C@H](CCSC)NC(=O)[C@H](CCCNC(=N)N)NC(=O)[C@H](Cc2c[nH]c3ccccc23)NC(=O)[C@H](CCC(N)=O)NC(=O)[C@H](Cc2c[nH]c3ccccc23)NC(=O)[C@H](CCCNC(=N)N)NC(=O)[C@H](CCCNC(=N)N)NC(=O)[C@@H](NC(C)=O)CSSC[C@@H](C(N)=O)NC(=O)[C@H]([C@@H](C)O)NC1=O [Ac-bovine LF (19-36)-NH2, N-acetyl-bovine LF (19-36)-amide] (Ac-CRRWQWRMKKLGAPSITC-NH2; disulfide 1-18)",17,8.8,6.1,5.0,3.6,87.5,96.5,,,,
"CSCC[C@@H]1NC(=O)[C@H](CC(N)=O)NC(=O)[C@H](CCCNC(=N)N)NC(=O)[C@H](CCC(N)=O)NC(=O)[C@H](Cc2c[nH]c3ccccc23)NC(=O)[C@H](CCC(N)=O)NC(=O)[C@H](Cc2ccccc2)NC(=O)[C@@H](NC(C)=O)CSSC[C@@H](C(N)=O)NC(=O)[C@H](CO)NC(=O)[C@H](C(C)C)NC(=O)[C@@H]2CCCN2C(=O)[C@@H]2CCCN2C(=O)CNC(=O)[C@H](CCCNC(=N)N)NC(=O)[C@H](C(C)C)NC(=O)[C@H](CCCCN)NC(=O)[C@H](CCCNC(=N)N)NC1=O [Ac-human LF (20-37)-NH2, N-acetyl-human LF (20-37)-amide] (Ac-CFQWQRNMRKVRGPPVSC-NH2; disulfide 1-18)",18,9.8,7.7,4.5,3.9,93.7,96.1,,,,
CC[C@H](C)[C@@H]1NC(=O)[C@H](CO)NC(=O)[C@@H]2CCCN2C(=O)[C@H](C)NC(=O)CNC(=O)[C@H](CC(C)C)NC(=O)[C@H](CCCCN)NC(=O)[C@H](CCCCN)NC(=O)[C@H](CCSC)NC(=O)[C@H](CCCNC(=N)N)NC(=O)[C@H](Cc2c[nH]c3ccccc23)NC(=O)[C@H](CCC(N)=O)NC(=O)[C@H](Cc2c[nH]c3ccccc23)NC(=O)[C@H](CCCNC(=N)N)NC(=O)[C@H](CCCNC(=N)N)NC(=O)[C@@H](NC(=O)[C@H](CCCCN)NC(=O)[C@@H](N)Cc2ccccc2)CSSC[C@@H](C(=O)N[C@H](C(=O)N[C@@H](CCCNC(=N)N)C(=O)N[C@@H](CCCNC(=N)N)C(=O)N[C@@H](C)C(=O)N[C@@H](Cc2ccccc2)C(=O)O)C(C)C)NC(=O)[C@H]([C@@H](C)O)NC1=O [Bovine LF (17-41)],17,7.9,5.9,2.7,1.0,93.7,95.7,30,60,100,100
"CC[C@H](C)[C@H](NC(=O)[C@H](CO)NC(=O)[C@@H]1CCCN1C(=O)[C@H](C)NC(=O)CNC(=O)[C@H](CC(C)C)NC(=O)[C@H](CCCCN)NC(=O)[C@H](CCCCN)NC(=O)[C@H](CCSC)NC(=O)[C@H](CCCNC(=N)N)NC(=O)[C@H](Cc1c[nH]c2ccccc12)NC(=O)[C@H](CCC(N)=O)NC(=O)[C@H](Cc1c[nH]c2ccccc12)NC(=O)[C@H](CCCNC(=N)N)NC(=O)[C@H](CCCNC(=N)N)NC(=O)[C@H](CS)NC(=O)[C@H](CCCCN)NC(=O)[C@@H](N)Cc1ccccc1)C(=O)N[C@H](C(=O)N[C@@H](CS)C(=O)N[C@H](C(=O)N[C@@H](CCCNC(=N)N)C(=O)N[C@@H](CCCNC(=N)N)C(=O)N[C@@H](C)C(=O)N[C@@H](Cc1ccccc1)C(=O)O)C(C)C)[C@@H](C)O [[19 CysSH, 36 CysSH] Bovine LF (17-41)]",19,8.3,6.4,2.9,1.2,92.0,100.0,,,,
"CC[C@H](C)[C@H](NC(=O)[C@H](CS)NC(=O)[C@H](CO)NC(=O)[C@@H](NC(=O)[C@@H]1CCCN1C(=O)[C@@H]1CCCN1C(=O)CNC(=O)[C@H](CCCNC(=N)N)NC(=O)[C@@H](NC(=O)[C@H](CCCCN)NC(=O)[C@H](CCCNC(=N)N)NC(=O)[C@H](CCSC)NC(=O)[C@H](CC(N)=O)NC(=O)[C@H](CCCNC(=N)N)NC(=O)[C@H](CCC(N)=O)NC(=O)[C@H](Cc1c[nH]c2ccccc12)NC(=O)[C@H](CCC(N)=O)NC(=O)[C@H](Cc1ccccc1)NC(=O)[C@H](CS)NC(=O)[C@H](CCCCN)NC(=O)[C@@H](N)[C@@H](C)O)C(C)C)C(C)C)C(=O)N[C@@H](CCCCN)C(=O)N[C@@H](CCCNC(=N)N)C(=O)N[C@@H](CC(=O)O)C(=O)N[C@@H](CO)C(=O)O [[20CysSH, 37CysSH] Human LF (18-42)] (H-TKCFQWQRNMRKVRGPPVSCIKRDS-OH)",17,8.5,6.2,3.1,1.4,96.0,100.0,,,,
"Bovine LF: bovine lactoferrin, an iron-binding protein secreted in milk (CRRWQWRMKKLGAPSITC)",18,8.0,6.2,4.8,3.6,87.5,95.7,,,,

# Reference: patent US5565425A, “Viral infection and proliferation inhibitors” (Snow Brand Milk Products Co., Ltd, priority 1993, dated 1996)
